Measurements published in patent US20160067209A1, “PTEROCARPAN COMPOUND OR PHARMACEUTICALLY ACCEPTABLE SALT THEREOF AND PHARMACEUTICAL COMPOSITION FOR PREVENTION OR TREATMENT OF METABOLIC DISEASE OR COMPLICATION THEREOF, OR FOR ANTIOXIDANT CONTAINING THE SAME AS AN ACTIVE INGREDIENT” (KOREA RESEARCH INSTITUTE OF BIOSCIENCE AND BIOTECHNOLOGY, priority 2010, published 2016).
pIC50: −log10 of the molar value.

Experiments:
hACAT-1 = molecular target: T1, hACAT-1 (Homo sapiens, UniProt P35610); test: hACAT inhibitory activity, microsome fraction of Hi5 cells, [1-14C] oleoyl-CoA substrate; type: biochemical; settings: for inhibition at 100 µM: read-out: Inhibitory activity at 100 μM (%) hACAT1
T1 construct: made in house; host or cells: Hi5 insect cells (baculovirus; virus produced in sf9), microsome fraction
T1 sequence (P35610 1-550): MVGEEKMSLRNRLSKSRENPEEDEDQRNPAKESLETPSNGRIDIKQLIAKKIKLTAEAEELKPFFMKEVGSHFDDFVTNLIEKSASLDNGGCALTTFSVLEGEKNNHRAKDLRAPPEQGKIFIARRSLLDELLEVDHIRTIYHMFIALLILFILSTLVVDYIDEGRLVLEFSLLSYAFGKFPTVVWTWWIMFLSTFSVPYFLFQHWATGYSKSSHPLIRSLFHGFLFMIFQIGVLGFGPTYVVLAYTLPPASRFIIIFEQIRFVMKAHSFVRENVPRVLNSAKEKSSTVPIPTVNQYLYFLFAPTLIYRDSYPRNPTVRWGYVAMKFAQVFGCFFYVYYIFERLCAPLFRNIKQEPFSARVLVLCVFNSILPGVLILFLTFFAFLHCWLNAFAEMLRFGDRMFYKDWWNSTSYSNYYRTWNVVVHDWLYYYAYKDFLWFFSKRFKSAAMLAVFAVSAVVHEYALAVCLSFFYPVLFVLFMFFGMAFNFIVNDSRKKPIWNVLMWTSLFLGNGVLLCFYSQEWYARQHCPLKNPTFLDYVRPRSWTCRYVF
Procedure: (§1) cDNA of each hACAT-1 and hACAT-2 obtained by human liver cDNA library screening was inserted into baculovirus vector, which was then introduced into the insect cell sf9 to produce target virus. The recombinant virus of each hACAT-1 and hACAT-2 was separated by plaque purification and then amplified three times to increase titer of viral stock.
(§2) To separate microsome fractions from the cultured Hi5 cells over-expressing hACAT-1 and hACAT-2, centrifugation was performed at 500 rpm for 15 minutes. The collected cells were lysed by quick-freezing/quick-thawing in hypotonic buffer, followed by ultracentrifugation at 100,000 rpm for one hour. The obtained microsome fractions were suspended in hypotonic buffer to make the protein concentration to be 8 mg/ml, which was stored in −70° C. freezer until use.
(§3) Human ACAT (hACAT) activity was measured by the method of Brecher & Chan (P. Brecher and C. Chan, Biochem. Biophys. Acta, 1980, 617: 458) with slight modification using [1-^14C] oleoyl-CoA (56.0 ρCi/μmol; Amersham) as a substrate. 10 μl of each of the pterocarpan compounds represented by Formula 2-Formula 5 obtained in Example 1 in dimethylsulfoxide (DMSO) was mixed with 4.0 μl of the microsome solution obtained in step 1, 20.0 μl a of assay buffer (0.5 M KH2PO4, 10 mM DTT, pH 7.4; Sigma), 15.0 μl of bovine serum albumin (BSA, stock solution conc. 40 mg/ml; Sigma), 2.0 μl of cholesterol (stock solution conc. 20 mg/ml; Sigma), and 41.0 μl of distilled water, followed by pre-reaction at 37° C. for 15 minutes. In this assay, the negative control was used the DMSO alone, and the positive control was used a known ACAT inhibitor, oleic acid anilide.
(§4) Eight (8) μl of [1-^14C] oleoyl-CoA (0.05 μCi, final conc. 10.0 μM) was added to the above reaction mixture, followed by reaction at 37° C. for 30 minutes. The reaction was terminated by adding 1 ml of isopropanol:heptane mixed solution (4:1(v/v)). Six hundred (600) μl of heptane and 200 μl of 0.1 M KH2PO4 (pH 7.4) were added thereto and the reaction mixture was vortexed vigorously and centrifuged at 300 rpm for 5 minutes. The obtained upper phase (100 μl) was added in a scintillation vial, to which 4 ml of scintillation solution (Lipoluma, Lumac Co.) were added. Radioactivity of the upper phase was measured by 1450 Microbeta liquid scintillation counter (Wallacoy).
(§5) hACAT activity was calculated based on the radioactivity, the amount of synthesized cholesteryl oleated, measured above and expressed as a defined unit, pico mole per 1 mg of protein for 1 minute (pico mole/minute/mg protein).

hACAT-2 = molecular target: T2, hACAT-2 (Homo sapiens, UniProt O75908); test: as above; type: biochemical; settings: read-out: Inhibitory activity at 100 μM (%) hACAT2
T2 construct: made in house; host or cells: Hi5 insect cells (baculovirus; virus produced in sf9), microsome fraction
T2 sequence (O75908 1-522): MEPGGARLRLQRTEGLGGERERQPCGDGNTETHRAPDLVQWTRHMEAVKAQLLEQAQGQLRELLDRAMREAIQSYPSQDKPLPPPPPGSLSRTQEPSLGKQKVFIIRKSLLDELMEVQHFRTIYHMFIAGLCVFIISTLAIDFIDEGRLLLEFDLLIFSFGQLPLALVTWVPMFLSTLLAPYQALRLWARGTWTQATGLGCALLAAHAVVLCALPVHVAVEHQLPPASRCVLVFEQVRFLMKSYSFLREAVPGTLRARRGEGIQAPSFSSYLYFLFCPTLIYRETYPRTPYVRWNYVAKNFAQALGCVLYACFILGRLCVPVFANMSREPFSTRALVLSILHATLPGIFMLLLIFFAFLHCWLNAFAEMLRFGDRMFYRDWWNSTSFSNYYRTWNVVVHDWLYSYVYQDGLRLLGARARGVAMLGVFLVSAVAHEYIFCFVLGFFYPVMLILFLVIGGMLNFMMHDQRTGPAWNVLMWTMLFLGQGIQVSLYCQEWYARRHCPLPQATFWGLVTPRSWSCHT
Procedure: as §1, §2, §3, §4, §5

LDL = LDL anti-oxidative activity, Cu-mediated LDL-oxidation, TBA method; type: biochemical, human; settings: CuSO4, 37° C., 4 hours, MDA by TBA; read-out: LDL-oxidation inhibitory activity (IC50)
Procedure: Cu^2+ has been known to induce LDL-oxidation (Cu-mediated LDL-oxidation). In this invention, dialdehyde, the oxide of unsaturated fatty acid, generated during LDL-oxidation was measured by TBA (thiobarbituric acid) method to investigate the anti-oxidative activity of the pterocarpan compound isolated from soybean leaves (Packer, L. Ed. (1994) Methods in Enzymology Vol. 234, Oxygen radicals in biological systems Part D. Academic press, San Diego).
Three hundred (300) ml of human plasma were centrifuged at 100,000×g for 24 hours to remove floating VLDL/chylomicron layer in upper part. The specific gravity of the remaining solution was adjusted to […], followed by re-centrifugation at 100,000×g for 24 hours, and 25 ml of the floating LDL (1.5-2.5 mg protein/ml) in upper layer was separated.
Twenty (20) μl of the separated LDL (protein conc. 50-100 μg/ml) was mixed with 210 μl of 10 mM PBS, to which 10 μl of each of the pterocarpan compounds represented by Formula 2-Formula 5 of the present invention was added respectively.
The pterocarpan compounds were dissolved in DMSO, which were further diluted properly for the experiment. In this assay, the negative control was used the DMSO only, while the positive control was used a known LDL-antioxidant, probucol.
Ten (10) μl of 0.25 mM CuSO4 was added to the above reaction mixture, followed by reaction at 37° C. for 4 hours. The reaction was terminated by adding 1 ml of 20% trichloroacetic acid (TCA) solution. One (1) ml of 0.67% thiobarbituric acid (TBA) dissolved in 0.05 N NaOH solution was added thereto, followed by stirring for 10 seconds. Then, the reaction mixture was heated at 95° C. for 5 minutes to induce color development. The solution was cooled down with iced water and centrifuged at 3,000 rpm for 5 minutes to separate supernatant. The amount of malondialdehyde (MDA) generated by the color development was calculated by measuring optical density at 540 nm (OD540) with UV-VIS Spectrophotometer.
PBS standard solution containing 0-10 nmol MDA was prepared by […] with tetramethoxypropane malonaldehyde bis (dimethylacetal) stock solution. Color development was induced with the standard solution, followed by measuring OD540. The generated MDA was quantified by using the standard curve in experiments with the pterocarpan compound of the present invention.

| Compound | inhibition at 100 µM (hACAT-1) | inhibition at 100 µM (hACAT-2) | pIC50 (LDL) | Inhibitory activity at 100 μM (%) hACAT1 (hACAT-1; 100 µM) |
| --- | --- | --- | --- | --- |
| C=C(C)c1cc2cc3c(cc2o1)OC[C@@]1(O)c2ccc(O)cc2O[C@@H]31 [Formula 2, (6aS,11aS)-2-(pro-1-pene-2-yl)-6a,11a-dihydro-6H-benzofuro[3,2-c]furo[3,2-g]chromene-6a,9-diol] | 29.7% | 22.9% | 4.37 |  |
| COc1ccc2c(c1)O[C@H]1c3c(cc(O)c(CC=C(C)C)c3OC)OC[C@@]21O [Formula 3] | 35.2% | 20.3% | 4.29 |  |
| COc1cc(O)cc2oc(=O)c3c4ccc(O)cc4oc3c12 [Formula 4, isotrifoliol] | 14.9% | 7.9% | 5.35 |  |
| CC(C)=CCc1c(O)ccc2c1oc(=O)c1c3ccc(O)cc3oc21 [Formula 5, phaseol] | 85.8% | 67.4% | 6.00 | 85.9% |
